Assay results published in ChEMBL document CHEMBL1201862, “PubChem BioAssay data set” (2004).
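Briefly, cells in 96-well plates were exposed to five compound concentrations for 48 h, and endpoints were estimated by linear interpolation. GI50 = concentration required for 50% inhibition of growth.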 Calls of active or inactive are those of the source. No stated cut-off is given here; in the data, active = GI50 up to about 1.1 µM and inactive = higher.

Columns and labels:
Assay in all cases: NCI tumour cell line growth inhibition, 48 h
ACHN = system: ACHN
CCRF-CEM = system: CCRF-CEM
EKVX = system: EKVX
HCC 2998 = system: HCC 2998
HOP-62 = system: HOP-62
HT-29 = system: HT-29
IGROV-1 = system: IGROV-1
KM12 = system: KM12
M14 = system: M14
MDA-MB-231 = system: MDA-MB-231
OVCAR-4 = system: OVCAR-4
SF-268 = system: SF-268
SF-539 = system: SF-539
SK-MEL-28 = system: SK-MEL-28
SN12C = system: SN12C
SNB-19 = system: SNB-19
SW-620 = system: SW-620
TK-10 = system: TK-10
U-251 = system: U-251

Row | Structure (SMILES) | GI50 (ACHN) | GI50 (CCRF-CEM) | GI50 (EKVX) | GI50 (HCC 2998) | GI50 (HOP-62) | GI50 (HT-29) | GI50 (IGROV-1) | GI50 (KM12) | GI50 (M14) | GI50 (MDA-MB-231) | GI50 (OVCAR-4) | GI50 (SF-268) | GI50 (SF-539) | GI50 (SK-MEL-28) | GI50 (SN12C) | GI50 (SNB-19) | GI50 (SW-620) | GI50 (TK-10) | GI50 (U-251)
1 | O=[N+]([O-])c1ccc(/C=C/c2cc(-c3ccccc3)nc3ccc4ccccc4c23)cc1 | > 100 µM (inactive) | > 100 µM (inactive) | > 100 µM (inactive) | > 100 µM (inactive) | > 100 µM (inactive) | > 100 µM (inactive) | > 100 µM (inactive) | > 100 µM (inactive) | > 100 µM (inactive) | > 100 µM (inactive) | > 100 µM (inactive) | > 100 µM (inactive) | > 100 µM (inactive) | > 100 µM (inactive) | > 100 µM (inactive) | > 100 µM (inactive) | > 100 µM (inactive) | > 100 µM (inactive) | > 100 µM (inactive)
2 | C=C1C[C@H](O)[C@H](Br)C(C)(C)C12CCC(C)(Cl)C(Br)C2 (stereo partly drawn) | 5.05 µM (inactive) | 0.0359 µM (active) | 0.286 µM (active) | 5.52 µM (inactive) | 2.26 µM (inactive) | 0.141 µM (active) | 4.38 µM (inactive) | 1.48 µM (inactive) | 2.36 µM (inactive) | 2.72 µM (inactive) | 0.635 µM (active) | 6.87 µM (inactive) | 15.6 µM (inactive) | 7.74 µM (inactive) | 4.37 µM (inactive) | 1.23 µM (inactive) | 4.99 µM (inactive) | 3.15 µM (inactive) | 0.272 µM (active)
3 | C#CCn1c(=O)c(C)cn(/C(=C/C(=O)OCC)C(=O)OCC)c1=O | 1.84 µM (inactive) | 1.04 µM (active) | 5.87 µM (inactive) | 17.8 µM (inactive) | 15.8 µM (inactive) | 2.23 µM (inactive) | 3.75 µM (inactive) | 17.4 µM (inactive) | 2.92 µM (inactive) | 15.3 µM (inactive) | 6.28 µM (inactive) | 12.4 µM (inactive) | 1.64 µM (inactive) | 4.9 µM (inactive) | 8.57 µM (inactive) | 14.6 µM (inactive) | 1.67 µM (inactive) | 2.01 µM (inactive) | 9.98 µM (inactive)
4 | CCOC(=O)/C=C/[C@H](O[Si](c1ccccc1)(c1ccccc1)c1ccccc1)C(C)(C)C | > 31.6 µM (inactive) | 15.8 µM (inactive) | > 31.6 µM (inactive) | 5.92 µM (inactive) | > 31.6 µM (inactive) | 7.03 µM (inactive) | > 31.6 µM (inactive) | 15.8 µM (inactive) | 73.8 µM (inactive) | > 31.6 µM (inactive) | > 31.6 µM (inactive) | > 31.6 µM (inactive) | > 31.6 µM (inactive) | > 10 µM (inactive) | > 31.6 µM (inactive) | > 31.6 µM (inactive) | > 31.6 µM (inactive) | > 31.6 µM (inactive) | > 31.6 µM (inactive)
5 | COC(=O)[C@@H]1C=C[C@@H](C#N)n2c(=O)n(-c3ccccc3)c(=O)n21 | 38.5 µM (inactive) | 25.9 µM (inactive) | 35.5 µM (inactive) | 33.3 µM (inactive) | 13.3 µM (inactive) | 31.1 µM (inactive) | 32.6 µM (inactive) | 28.8 µM (inactive) | 25.9 µM (inactive) | 19.7 µM (inactive) | 36.3 µM (inactive) | 27.9 µM (inactive) | 20.8 µM (inactive) | 17 µM (inactive) | 26.2 µM (inactive) | > 100 µM (inactive) | 41.9 µM (inactive) | 82.2 µM (inactive) | 33.8 µM (inactive)
6 | COc1ccc2cc(CN3CCC(C4CCNCC4)CC3)ccc2c1 | 3.61 µM (inactive) | 1.96 µM (inactive) | 5.02 µM (inactive) | 0.412 µM (active) | 2.67 µM (inactive) | 1.3 µM (inactive) | 3.7 µM (inactive) | 2.11 µM (inactive) | 2.06 µM (inactive) | 2.2 µM (inactive) | 8.97 µM (inactive) | 2.58 µM (inactive) | 1.71 µM (inactive) | 1.75 µM (inactive) | 6.85 µM (inactive) | 6.65 µM (inactive) | 1.82 µM (inactive) | 3.79 µM (inactive) | 1.91 µM (inactive)
7 | O=C1CCN/C(=N\C(=O)C(F)(F)F)N1CCc1c[nH]c2ccccc12 | > 100 µM (inactive) | > 100 µM (inactive) | > 100 µM (inactive) | > 100 µM (inactive) | > 100 µM (inactive) | > 100 µM (inactive) | > 100 µM (inactive) | > 100 µM (inactive) | > 100 µM (inactive) | > 100 µM (inactive) | > 100 µM (inactive) | > 100 µM (inactive) | > 100 µM (inactive) | > 100 µM (inactive) | > 100 µM (inactive) | > 100 µM (inactive) | > 100 µM (inactive) | > 100 µM (inactive) | > 100 µM (inactive)
